Test results: patent US4985417A, “Treatment of glaucoma” (priority 1989, dated 1991)
Structures can show the parent of a compound that is named as a salt.

Columns and labels:
[1] = cited from earlier work
carbonic anhydrase = carbonic anhydrase inhibition (concentration for 50% inhibition); format: biochemical; conditions: carbonic anhydrase inhibitory properties; read-out: Conc. for 50% Inhibition

| IC50 (carbonic anhydrase) | Compound | water solubility [1] |
| --- | --- | --- |
|  | CC(=O)Nc1nnc(S(N)(=O)=O)s1 [Acetazolamide, acetazolamide] | about 0.01 % w/v |
| 94.9 nM | NS(=O)(=O)c1ccc(NC(=O)[C@@H]2CCCN2)cc1 [4-(L-prolylamino)benzenesulfonamide hydrochloride] |  |
| 67.5 nM | CC(=O)N1CCC[C@H]1C(=O)Nc1ccc(S(N)(=O)=O)cc1 [4-(N-acetyl-L-prolyl-amino)benzenesulfonamide] |  |
